This assay relates to S. pyogenes iMLS resistante strain. Kind of assay: MIC by broth dilution (NCCLS M7-A2), S. pyogenes iMLS resistant strain. In kind it is cell-based. The note with it: MIC = concentration showing 90% growth inhibition, tested range 64 to 0.125 μg/ml. How it is done: Final concentration of test substances were in range from 64 to 0.125 μg/ml. MIC levels for all compound were determinated on panel of susceptible and resistant Gram positive bacterial strains (S. aureus, S. pneumoniae and S. pyogenes) and on Gram negative strains (E. coli, H. influenzae, E. faecalis, M. catarrhalis).
On the technique in general: In broth dilution the organism is exposed to a series of concentrations in liquid medium.

Each structure is given as a SMILES string. Converted amounts (≈) assume the structure as drawn.

The compound `CCC1OC(=O)C(C)C(OC2CC(C)(OC)C(O)C(C)O2)C(C)C(OC2OC(C)CC(N(C)C)C2O)C(C)(O)CC(C)CN(C(=O)Nc2ccc(S(=O)(=O)Nc3ccccc3)cc2)C(C)C(O)C1(C)O` (centres unmarked) [Example 4, 9-Deoxo-9-dihydro-9a-N-{N′-[4-(phenylaminosulfonyl)phenyl]carbamoyl}-9a-aza-9a-homoerithromycin A] yielded a minimum inhibitory concentration (MIC) of 2 µg/mL (≈ 1.98 µM).

`CCC1OC(=O)C(C)C(OC2CC(C)(OC)C(O)C(C)O2)C(C)C(OC2OC(C)CC(N(C)C)C2O)C(C)(O)CC(C)CN(C(=O)Nc2ccc(S(N)(=O)=O)cc2)C(C)C(O)C1(C)O` (centres unmarked) [Example 3, 9-Deoxo-9-dihydro-9a-N-{[4-(aminosulfonyl)phenyl]carbamoyl}-9a-aza-9a-homoerithromycin A] had an MIC of 2 µg/mL (≈ 2.14 µM).

By MIC is commonly meant the smallest concentration in the dilution series that meets the test's criterion for growth inhibition.
